Reference: patent publication US7875638B2, “Synthesis of epothilones, intermediates thereto, analogues and uses thereof” (Sloan-Kettering Institute for Cancer Research, priority 2002, dated 2011)

Columns and labels:
[1] = system: human colon carcinoma HCT-116 xenograft; assay: HCT-116 xenograft in nude mice; conditions: for Tumor relapse during follow-up to D200: Fludelone 20 and 30 mg/kg; for Tumor free following the cessation of treatment: mouse, in vivo
[2] = system: paclitaxel resistant human lung carcinoma A549/Taxol xenograft; conditions: 20 mg/kg
[3] = system: paclitaxel resistant human lung carcinoma A549/Taxol xenograft; assay: A549/Taxol xenograft in nude mice

In the case of C/C(=C\c1csc(C)n1)[C@@H]1C/C=C(/C(F)(F)F)C/C=C/[C@H](C)[C@H](O)[C@@H](C)C(=O)C(C)(C)[C@@H](O)CC(=O)O1 [Compound 29, 26-trifluoro-trans-9,10-dehydro-12,13-desoxyepothilone B], the “Maximal body weight loss without lethality” value ([1]; 30 mg/kg, end of the 2nd cycle (D29)) was 30%, the “Tumor relapse during follow-up to D200” value ([1]; Taxol 20 mg/kg) was “no tumor relapse” and the “Tumor relapse during follow-up to D200” value ([1]; Taxol 20 mg/kg, listed as F3-deH-dEpoB) was “no tumor relapse in 4 out of 4 mice on D200”. For the same compound, the “Tumor disappearance (mice)” value ([1]; Q2Dx4, 6 hr-i.v. infusion for 3 cycles, F3-deH-dEpoB 20 and 30 mg/kg, Taxol 20 mg/kg) was 4 out of 4, the “Tumor free following the cessation of treatment” value ([1]; listed as 26-trifluoro-9,10-trans-dehdyro-epothilone D) was “over 5.2 months” and the “Tumor free following the cessation of treatment” value ([1]; listed as Fludelone) was “over 5.3 months”. For the same compound, the “Tumor reduction, % of the pretreatment control” value [2] was 24.4%, the “Body weight recovery upon suspension of drug treatment, % of the pretreatment control” value ([3]; 20 mg/kg) was 90% and the “Maximal body weight decrease” value ([3]; 20 mg/kg) was 24%. For the same compound, the Tumor growth suppression ([3]; 29: 20 mg/kg, 28: 4 mg/kg) was “totally suppressed”.
